From patent USRE47689E1, “Compounds for treating spinal muscular atrophy” (PTC Therapeutics, Inc., priority 2011, dated 2019)
Like-named read-outs stand apart in the source and are kept apart here.

Columns and labels:
[1] = test system: SMN2 minigene (full length SMN2 minigene mRNA containing SMN2 exon 7); test: SMN2 minigene mRNA splicing RT-qPCR assay in cultured cells; type: cell-based, human; settings: Homo sapiens, HEK293-H, read-out: EC1.5x for production of full length SMN2 mRNA
Method in brief: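 HEK293H cells stably carrying the SMN2-A minigene treated 24 h at 37° C with compound (DMSO, 200× stock), then lysed. Multiplex RT-qPCR (SMN primers 0.4 μM final; 40 cycles) measures full-length exon 7-containing minigene mRNA, normalized to GAPDH and to vehicle; EC1.5x derived and binned by stars.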

[2] = test system: Smn protein; test: Smn protein assay in cultured cells (SMN HTRF); type: cell-based, human; settings: 48 hours; for EC1.5x (concentration giving 1.5-fold Smn protein increase): SMA Type 1 patient fibroblast cells (GM03813), 7-point concentration curve, SMN HTRF, concentration producing 1.5 times Smn protein vs DMSO vehicle control, read-out: EC1.5x for Smn protein expression; for maximum fold (Fold) increase of Smn protein: SMA patient fibroblast cells, 7-point concentration data, fold increase relative to vehicle control (SMN HTRF)
Method in brief: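 Lysates in RIPA with protease inhibitors are incubated overnight at room temperature with HTRF anti-SMN antibodies. EC1.5x is derived from fold increase in ΔF over vehicle.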

[3] = HEK293H cells stably transfected with SMN2-A minigene, 24 hours, 7-point concentration curve, 1.5-fold relative to vehicle-treated cells

Compound	EC (1.5-fold) [1, 3]	EC1.5x (concentration giving 1.5-fold Smn protein increase) [2]	maximum fold (Fold) increase of Smn protein [2]	melting point	EC (1.5-fold) ([1]; 24 h)
Cc1cnc2nc(-c3cc4ccc(N5CCN[C@@H](C)C5)cc4oc3=O)cn2c1 [Compound 462, 3-(6-methylimidazo[1,2-a]pyrimidin-2-yl)-7-[(3S)-3-methylpiperazin-1-yl]-2H-chromen-2-one]	< 0.1 µM	1000 to 3000 nM	*** (fold increase between >1.35 and ≤1.5)	254 to 256 °C	–
Cc1ccc2nc(-c3cc4ccc(N5CCCN(C)CC5)cc4oc3=O)cn2c1 [Compound 142, 7-(4-methyl-1,4-diazepan-1-yl)-3-(6-methylimidazo[1,2-a]pyridin-2-yl)-2H-chromen-2-one]	1 to 3 µM	300 to 1000 nM	**** (fold increase between >1.5 and ≤1.65)	175 to 180 °C	–
O=c1oc2cc(N3CCNCC3)ccc2cc1Nc1ccc(Cl)cn1 [Compound 65, 3-[(5-chloropyridin-2-yl)amino]-7-(piperazin-1-yl)-2H-chromen-2-one]	0.3 to 1 µM	–	* (maximum fold increase of ≤1.2)	253 to 255 °C	–
COc1c(F)cc(F)cc1-c1cc2ccc(N3CCNCC3)cc2oc1=O [Compound 538, 3-(3,5-difluoro-2-methoxyphenyl)-7-(piperazin-1-yl)-2H-chromen-2-one]	3 to 30 µM	–	* (maximum fold increase of ≤1.2)	109 to 111 °C	–
CN1CCN(c2ccc3cc(-c4ccsc4)c(=O)oc3c2)CC1 [Compound 320, 7-(4-methylpiperazin-1-yl)-3-(thiophen-3-yl)-2H-chromen-2-one]	–	–	* (maximum fold increase of ≤1.2)	151 to 153 °C	1 to 3 µM
CN1CCN(c2cc(F)c3cc(-c4cn5ccccc5n4)c(=O)oc3c2)CC1 [Compound 422, 5-fluoro-3-(imidazo[1,2-a]pyridin-2-yl)-7-(4-methylpiperazin-1-yl)-2H-chromen-2-one]	0.3 to 1 µM	–	** (fold increase between >1.2 and ≤1.35)	263 to 269 °C	–
Cc1cc(Cl)cn2cc(-c3cc4ccc(N5CCN(C)CC5)cc4oc3=O)nc12 [Compound 264, 3-(6-chloro-8-methylimidazo[1,2-a]pyridin-2-yl)-7-(4-methylpiperazin-1-yl)-2H-chromen-2-one]	1 to 3 µM	–	* (maximum fold increase of ≤1.2)	238 °C	–
Cc1cn2cc(-c3cc4ccc(C5CCN(C6COC6)CC5)cc4oc3=O)ccc2n1 [Compound 828, 3-(2-methylimidazo[1,2-a]pyridin-6-yl)-7-[1-(oxetan-3-yl)piperidin-4-yl]-2H-chromen-2-one]	0.1 to 0.3 µM	300 to 1000 nM	***** (fold increase >1.65)	198 to 200 °C	–
Cc1cn2cc(-c3cc4ccc(N5CCNCC5)cc4oc3=O)cc2c(C)n1 [Compound 670, 3-(1,3-dimethylpyrrolo[1,2-a]pyrazin-7-yl)-7-(piperazin-1-yl)-2H-chromen-2-one]	< 0.1 µM	< 300 nM	***** (fold increase >1.65)	186 to 189 °C	–
Cc1cn2cc(-c3cc4ccc(N5CCN(C)CC5)cc4oc3=O)nc2s1 [Compound 97, 3-(2-methylimidazo[2,1-b][1,3]thiazol-6-yl)-7-(4-methylpiperazin-1-yl)-2H-chromen-2-one]	1 to 3 µM	3000 to 10000 nM	*** (fold increase between >1.35 and ≤1.5)	> 300 °C	–
Cc1cn2cc(-c3cc4ccc(N5CCCN(C)CC5)cc4oc3=O)nc2cn1 [Compound 493, 7-(4-methyl-1,4-diazepan-1-yl)-3-(6-methylimidazo[1,2-a]pyrazin-2-yl)-2H-chromen-2-one]	< 0.1 µM	< 300 nM	***** (fold increase >1.65)	234 to 235 °C	–
Cc1nccn2cc(-c3cc4ccc(N5CCN6CCC[C@@H]6C5)cc4oc3=O)cc12 [Compound 636, 7-[(8aR)-hexahydropyrrolo[1,2-a]pyrazin-2(1H)-yl]-3-(1-methylpyrrolo[1,2-a]pyrazin-7-yl)-2H-chromen-2-one]	< 0.1 µM	–	** (fold increase between >1.2 and ≤1.35)	170 to 173 °C	–
Cc1cc(C)c2nc(-c3cc4ccc(N5C[C@@H](C)N[C@@H](C)C5)cc4oc3=O)cn2c1 [Compound 262, 3-(6,8-dimethylimidazo[1,2-a]pyridin-2-yl)-7-[(3R,5S)-3,5-dimethylpiperazin-1-yl]-2H-chromen-2-one]	0.3 to 1 µM	–	** (fold increase between >1.2 and ≤1.35)	227 to 237 °C	–
CCN1CCN(c2ccc3cc(-c4cc5cc(C)nc(C)c5o4)c(=O)oc3c2)CC1 [Compound 788, 3-(5,7-dimethylfuro[2,3-c]pyridin-2-yl)-7-(4-ethylpiperazin-1-yl)-2H-chromen-2-one]	< 0.1 µM	< 300 nM	**** (fold increase between >1.5 and ≤1.65)	196 to 198 °C	–
CC(C)NCc1ccc2cc(-c3nc4ccccc4s3)c(=O)oc2c1 [Compound 8, 3-(1,3-benzothiazol-2-yl)-7-[(propan-2-ylamino)methyl]-2H-chromen-2-one]	1 to 3 µM	–	* (maximum fold increase of ≤1.2)	164 to 168 °C	–
Cc1nn2cc(-c3cc4ccc(N5C[C@@H](C)N[C@@H](C)C5)cc4oc3=O)nc2s1 [Compound 443, 7-[(3R,5S)-3,5-dimethylpiperazin-1-yl]-3-(2-methylimidazo[2,1-b][1,3,4]thiadiazol-6-yl)-2H-chromen-2-one]	< 0.1 µM	300 to 1000 nM	**** (fold increase between >1.5 and ≤1.65)	225 to 228 °C	–
Cc1cn2cc(-c3cc4ccc(N5CCNCC5)cc4oc3=O)cc2cn1 [Cpd 588, 3-(3-methylpyrrolo[1,2-a]pyrazin-7-yl)-7-(piperazin-1-yl)-2H-chromen-2-one]	< 0.1 µM	< 300 nM	***** (fold increase >1.65)	220 °C (dec.)	–
O=c1oc2cc(CN3CCNCC3)ccc2cc1-c1nc2c(Cl)cccc2s1 [Compound 7, 3-(4-chloro-1,3-benzothiazol-2-yl)-7-(piperazin-1-ylmethyl)-2H-chromen-2-one]	3 to 30 µM	–	* (maximum fold increase of ≤1.2)	222 to 226 °C	–
CCc1ccn2cc(-c3cc4ccc(N5CCCN(C)CC5)cc4oc3=O)nc2c1 [Compound 333, 3-(7-ethylimidazo[1,2-a]pyridin-2-yl)-7-(4-methyl-1,4-diazepan-1-yl)-2H-chromen-2-one]	0.3 to 1 µM	–	* (maximum fold increase of ≤1.2)	181 to 187 °C	–
Cc1cn2cc(-c3cc4ccc(N5CCC(NC6CCC6)CC5)cc4oc3=O)nc2c(C)n1 [Compound 924, 7-[4-(cyclobutylamino)piperidin-1-yl]-3-(6,8-dimethylimidazo[1,2-a]pyrazin-2-yl)-2H-chromen-2-one]	< 0.1 µM	< 300 nM	**** (fold increase between >1.5 and ≤1.65)	222 to 225 °C	–
CN1CCCN(c2ccc3cc(-c4cn5cc(Cl)cnc5n4)c(=O)oc3c2)CC1 [Compound 337, 3-(6-chloroimidazo[1,2-a]pyrimidin-2-yl)-7-(4-methyl-1,4-diazepan-1-yl)-2H-chromen-2-one]	1 to 3 µM	–	* (maximum fold increase of ≤1.2)	289 to 292 °C	–
Cc1nccn2cc(-c3cc4ccc(O[C@@H]5CCNC5)cc4oc3=O)nc12 [Compound 610, 3-(8-methylimidazo[1,2-a]pyrazin-2-yl)-7-[(3R)-pyrrolidin-3-yloxy]-2H-chromen-2-one]	0.3 to 1 µM	–	** (fold increase between >1.2 and ≤1.35)	220 to 230 °C	–
CN1CCCN(c2ccc3cc(-c4cn5cccc(F)c5n4)c(=O)oc3c2)CC1 [Compound 295, 3-(8-fluoroimidazo[1,2-a]pyridin-2-yl)-7-(4-methyl-1,4-diazepan-1-yl)-2H-chromen-2-one]	< 0.1 µM	300 to 1000 nM	**** (fold increase between >1.5 and ≤1.65)	174 to 176 °C	–
CCc1cc(C)cn2cc(-c3cc4ccc(N5CCCN(C)CC5)cc4oc3=O)nc12 [Compound 332, 3-(8-ethyl-6-methylimidazo[1,2-a]pyridin-2-yl)-7-(4-methyl-1,4-diazepan-1-yl)-2H-chromen-2-one]	0.3 to 1 µM	–	* (maximum fold increase of ≤1.2)	172 to 176 °C	–
